Reference: patent US4469701A, “Pyrrolid-3-en-2-ones and pharmaceutical methods of use thereof” (Stauffer Chemical Company, priority 1983, dated 1984)

Columns and labels:
[1] = system: hypercholesterolemic mice; experiment: Hypocholesterolemic: serum cholesterol in hypercholesterolemic mice; type: in vivo, mouse; details: for inhibition in vivo at 200 mg/kg: Mus musculus, hypercholesterolemic mice, 2 oral doses of 200 mg/kg 20 hr. apart, significance >20, read-out: C = Hypocholesterolemic: percent decrease in serum cholesterol
Procedure: Mice made hypercholesterolemic by being fed a high cholesterol-cholic acid diet for 7 days were dosed on the sixth and seventh days, p.o. After fasting overnight, reduction in serum cholesterol concentration by more than 15% (>15) from hypercholesterolemic control mice indicates activity.
^4 C = Hypocholesterolemic. Percent decrease in serum cholesterol in
hypercholesterolemic mice given 2 oral doses of 200 mg/kg drug candidate

mice [2] = experiment: Antiarrhythmic: chloroform-induced cardiac arrhythmia in mice; type: in vivo, mouse; details: 15 min. after a 200 mg/kg intraperitoneal dose; significance <2
Procedure: ^2 A = Antiarrythmic. Less than 2/3 mouse hearts fibrillating 15 min.

rats [3] = experiment: Bradycardia: heart rate by EKG in rats; type: in vivo, rat; details: for inhibition in vivo at 5 mg/kg: Rattus norvegicus, 0.75 h, 45 min. after a 5 mg/kg oral dose in rats, significance >10, read-out: B = Bradycardiac: percent decrease in heart rate
Procedure: […] Decrease in heart rate by more than 10% (>10) is considered a bradycardic effect.
Percent decrease in heart rate 45 min. after a 5
mg/kg oral dose in rats.

rats [4] = experiment: Antiulcer: stress induced gastric ulcers in rats; type: in vivo, rat; details: for inhibition in vivo at 50 mg/kg: 4 hr. following a 50 mg/kg oral dose in rats, significance >60, read-out: U = Antiulcerative: percent inhibition of stress ulcers
Procedure: Fasted rats were dosed, p.o., 30 minutes before immobilization in wire mesh and partial immersion in water for 4 hours. Inhibition of the resulting stress induced gastric ulcers by more than 60% (>60) indicates activity.
^6 U = Antiulcerative. Percent inhibition of stress ulcers 4 hr.
following a 50 mg/kg oral dose in rats.

[5] = Overall pharmacological profile; details: in vivo
[6] = system: spontaneously hypertensive rats (SHR); experiment: Antihypertensive: blood pressure (tail cuff) in spontaneously hypertensive rats (SHR); type: in vivo, rat; details: Rattus norvegicus; 6 hr. after a 100 mg/kg oral dose; significance >10; read-out: Antihypertensive: percent decrease in systolic blood pressure in spontaneously hypertensive rats
Procedure: Blood pressure was measured indirectly (tail cuff) in unanesthetized, unheated spontaneously hypertensive rats (SHR) before and 2, 4, and 6 hours after p.o. dosing. Reduction in mean pressure by more than 10% (>10) at any two consecutive measurement times after dosing indicates antihypertensive activity.

glucose-loaded mice = experiment: Hypoglycemic, glucose-loaded mice; type: in vivo, mouse; details: for ED100: Mus musculus, po, 1 h, p.o., glucose-loaded mice, reference compounds, read-out: ED-100, hypoglycemic, mice; for H = Hypoglycemic: percent decrease in serum glucose concentration: glucose loaded mice, 100 mg/kg oral dose, significance >20
Procedure: Reduction in blood glucose concentration by more than 20% (>20) in fasted, glucose-loaded (1 gm/kg) mice one hour after dosing, p.o., indicates activity (test compound administered at same time as glucose load).
^5 H = Hypoglycemic. Percent decrease in serum glucose concentration
in glucose loaded mice hr. following a 100 mg/kg oral dose.

starch loaded mice = experiment: Carbohydrate (CHO) efficiency/hypoglycemic, starch loaded mice; type: in vivo, mouse; details: Mus musculus, 1 h, oral, reference compounds, read-out: ED-100, CHO efficiency/hypoglycemic
[7] = Anticholinergic properties (overall statement); details: in vivo
mice [8] = experiment: Acute toxicity / autonomic effects observation; details: mouse, in vivo
Procedure: Mice were dosed at 300 mg/kg, per oral (p.o.) and […], interperitoneal (i.p.) for observation of any acute toxic symptoms or autonomic effects during the subsequent 72 hours. If none were noted, pharmacological evaluation proceeded employing doses and concentrations for each test based on appropriate multiples of doses required by suitable reference compounds. If acute toxicity was observed initially, the minimal toxic dose was determined and pharmacological screening doses were reduced proportionately.

[9] = Central nervous system (CNS) depression/effects; details: in vivo
mice [10] = experiment: Peripheral anticholinergic: lacrimation and salivation in mice; type: in vivo; details: Mus musculus, ip, read-out: ED-100, peripheral anticholinergic
mice [11] = experiment: Central anticholinergic: oxotremorine tremors in mice; details: Mus musculus, ip, 1 h, read-out: ED-100, central anticholinergic
[12] = system: hypercholesterolemic mice; experiment: HP-betalipoprotein: serum heparin precipitating lipoprotein (HPL); type: in vivo, mouse; details: 200 and 400 mg/kg, p.o.
Text: Reduction of serum heparin precipitating lipoprotein (HPL) concentrations (corresponding to low density lipoprotein and very low density lipoprotein fractions) in the same hypercholesterolemic mice from Test 6 above by more than 20% (>20) from control animals indicates activity.

Estrogenic effects = details: in vivo
mice [13] = experiment: Pupil dilation in mice; type: in vivo, mouse; details: i.p., reference compounds and the doses thereof
Procedure: If the pupil diameter of mice exceeds 1.0 mm (>1) in bright light 30 minutes after dosing, i.p., ganglionic blockage or anti-cholinergic activity is indicated in the absence of adrenergic action. The following are reference compounds and the doses thereof.

For `COc1ccc(N2CC(CN3C(C)(C)CCCC3(C)C)=CC2=O)cc1OC` [Compound 12], the inhibition in vivo at 200 mg/kg [1] was 3%, the “A = Antiarrythmic: mouse hearts fibrillating (of 3)” value (“A = Antiarrythmic” for short) (mice [2]) was 2 and the inhibition in vivo at 5 mg/kg (rats [3]) was 13%. For the same compound, the inhibition in vivo at 50 mg/kg (rats [4]; Rattus norvegicus) was 75%, the “Profile (comparison with another compound)” value (from here on “Profile”) [5] was “generally similar to that of Compound 6” and the inhibition in vivo at 100 mg/kg [6] was 14%.

`COc1ccc(Cl)cc1C(=O)NCCc1ccc(S(=O)(=O)NC(=O)NC2CCCCC2)cc1` [glibenclamide, reference compound] showed an ED100 (glucose-loaded mice) of 1 mg/kg and an ED100 (starch loaded mice) of 1 mg/kg.

With `CC1(C)CCCC(C)(C)N1CC1=CC(=O)N(c2cccc(C#N)c2)C1` [Compound 15] the Anticholinergic properties/effects [7] was “absence”, the inhibition in vivo at 200 mg/kg [1] was 15% and the “Acute toxicity / toxic effects” value (mice [8]) was “absence”. The “A = Antiarrythmic” value (mice [2]) was 3, the inhibition in vivo at 5 mg/kg (rats [3]) was 0% and the inhibition in vivo at 50 mg/kg (rats [4]; Rattus norvegicus) was 88%. For the same compound, the “Antiulcer effect, in words” value (rats [4]; rat, in vivo) was “unusual and strong activity”, the “CNS depression / CNS effects” value [9] was “absence of CNS depression” and the inhibition in vivo at 100 mg/kg [6] was 19%.

In the case of `CC1(C)CCCC(C)(C)N1CC1=CC(=O)N(c2cccc(C(F)(F)F)c2)C1` [Compound 1], the Anticholinergic properties/effects [7] is reported as “absence of notable”, the inhibition in vivo at 200 mg/kg [1] is reported as 5% and the “H = Hypoglycemic: percent decrease in serum glucose concentration” value (glucose-loaded mice) is reported as 14%. The “Acute toxicity / toxic effects” value (mice [8]) was “apparent lack of acute toxicity”, the “A = Antiarrythmic” value (mice [2]) was 0 and the inhibition in vivo at 5 mg/kg (rats [3]) was 14%. For the same compound, the inhibition in vivo at 50 mg/kg (rats [4]; Rattus norvegicus) was 75%, the “CNS depression / CNS effects” value [9] was “absence of notable central nervous system (CNS) depression” and the inhibition in vivo at 100 mg/kg [6] was 19%.

With `CN(C)CCC=C1c2ccccc2CCc2ccccc21` [amitriptyline] the ED100 (mice [10]; mice, reference compounds) was 25 mg/kg and the ED100 (mice [11]) was 10 mg/kg.

With `CC1(C)CCCC(C)(C)N1CC1=CC(=O)N(c2cccc(Cl)c2)C1` [Compound 13] the Anticholinergic properties/effects [7] was “absence”, the inhibition in vivo at 200 mg/kg [1] was 13% and the “Acute toxicity / toxic effects” value (mice [8]) was “absence”. The “A = Antiarrythmic” value (mice [2]) was 3, the inhibition in vivo at 5 mg/kg (rats [3]) was 1% and the inhibition in vivo at 50 mg/kg (rats [4]; Rattus norvegicus) was 88%. The “CNS depression / CNS effects” value [9] was “absence of CNS” and the inhibition in vivo at 100 mg/kg [6] was 4%.

`CN1CCN(C2=Nc3cc(Cl)ccc3Nc3ccccc32)CC1` [clozapine] gave an ED100 (mice [10]; mice, reference compounds) of 10 mg/kg and an ED100 (mice [11]) of 10 mg/kg.

In the case of `CC1(C)CCCC(C)(C)N1CC1=CC(=O)N(c2cc(C(F)(F)F)ccc2Cl)C1` [Compound 10], the Anticholinergic properties/effects [7] is reported as “absence of evidence of anticholinergic effects”, the “Serum cholesterol, in words” value ([1]; 200 and 400 mg/kg, p.o.) is reported as “Marked reductions” and the inhibition in vivo at 200 mg/kg [1] is reported as 46%. For the same compound, the HPL/cholesterol ratio [12] was “large reductions”, the “Heparin precipitating lipoproteins (HPL), in words” value [12] was “Marked reductions” and the “A = Antiarrythmic” value (mice [2]) was 3. The Estrogenic effects (Estrogenic effects) was “No estrogenic effects”, the inhibition in vivo at 5 mg/kg (rats [3]) was 1% and the “Bradycardic effects, in words” value (rats [3]; rat, in vivo) was “No”. The “Protection from stress-induced gastric ulcers, in words” value (rats [4]; 50 mg/kg, p.o., rats) was “partially protected”, the inhibition in vivo at 50 mg/kg (rats [4]; Rattus norvegicus) was 75% and the inhibition in vivo at 100 mg/kg [6] was 15%.

`CCCCNC(=O)NS(=O)(=O)c1ccc(C)cc1` [tolbutamide, reference compound] gave an ED100 (glucose-loaded mice) of 50 mg/kg and an ED100 (starch loaded mice) of 50 mg/kg.

In the case of `CC1(C)CCCC(C)(C)N1CC1=CC(=O)N(c2ccc(C(F)(F)F)cc2)C1` [Compound 7], the inhibition in vivo at 200 mg/kg [1] is reported as 0%, the “H = Hypoglycemic: percent decrease in serum glucose concentration” value (glucose-loaded mice) is reported as 22% and the “A = Antiarrythmic” value (mice [2]) is reported as 3. The inhibition in vivo at 5 mg/kg (rats [3]) was 12%, the inhibition in vivo at 50 mg/kg (rats [4]; Rattus norvegicus) was 38% and the “Profile” value [5] was “generally similar to that of Compound 6”. It also gave an inhibition in vivo at 100 mg/kg [6] of 16%.

Compound `OC(CCN1CCCCC1)(c1ccccc1)C1CCCCC1` (stereo not shown) [trihexyphenidyl] has an ED100 (mice [10]; mice, reference compounds) of 2.5 mg/kg and an ED100 (mice [11]) of 10 mg/kg.

Work on `[H]/N=C(/N)N/C(=N/[H])NCCc1ccccc1` [phenformin, reference compound] yielded an ED100 (glucose-loaded mice) of 100 mg/kg and an ED100 (starch loaded mice) of 100 mg/kg.

With `CN1[C@@H]2CC[C@H]1C[C@@H](OC(=O)C(CO)c1ccccc1)C2` (stereo partly shown) [atropine, reference compound] the ED100 (mice [10]) was 0.25 mg/kg, the ED100 (mice [11]) was 2 mg/kg and the “Reference dose, pupil dilation” value (mice [13]) was 0.25 mg/kg. For the same compound, the ED100 (rats [4]; Rattus norvegicus, po, read-out: ED-100, antiulcer) was 5 mg/kg.

In the case of `CSc1ccc(N2CC(CN3C(C)(C)CCCC3(C)C)=CC2=O)cc1` [Compound 8], the inhibition in vivo at 200 mg/kg [1] is reported as 0%, the “A = Antiarrythmic” value (mice [2]) is reported as 3 and the inhibition in vivo at 5 mg/kg (rats [3]) is reported as 18%. The inhibition in vivo at 50 mg/kg (rats [4]; Rattus norvegicus) was 50%, the “Profile” value [5] was “generally similar to that of Compound 6” and the inhibition in vivo at 100 mg/kg [6] was 25%.
